This passage reports IC50 results from patent US8309581B2, “Benzimidazole derivatives” (Hoffmann-La Roche Inc., priority 2009, dated 2012).

This assay has as its target T1, FXR ligand binding domain (Homo sapiens, UniProt Q96RI1).
T1 construct: made in house; host or cells: E. coli BL21 (pLysS)
T1 sequence (Q96RI1 193-472 isoform Q96RI1-2): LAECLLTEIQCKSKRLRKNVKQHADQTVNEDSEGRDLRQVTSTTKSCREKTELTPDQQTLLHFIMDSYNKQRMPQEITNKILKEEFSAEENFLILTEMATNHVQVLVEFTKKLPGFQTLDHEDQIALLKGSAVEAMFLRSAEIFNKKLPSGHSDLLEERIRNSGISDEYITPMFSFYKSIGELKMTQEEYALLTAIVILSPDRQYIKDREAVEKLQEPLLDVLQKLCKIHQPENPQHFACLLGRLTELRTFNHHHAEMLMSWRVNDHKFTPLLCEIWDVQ
Put plainly: Radioligand Binding Assay (scintillation proximity radioligand displacement). Conditions: GST-FXR LBD fusion protein on SPA beads, test compound 6×10^−9 M to 2.5×10^−5 M. The protocol:
The following tests were carried out in order to determine the activity of the compounds of formula (I). Background information on the binding assay can be found in: Nichols J S et al. “Development of a scintillation proximity assay for peroxisome proliferator-activated receptor gamma ligand binding domain”, (1998) Anal. Biochem. 257: 112-119.
Bacterial and mammalian expression vectors were constructed to produce glutathione-s-transferase (GST) and Gal4 DNA binding domain (GAL) proteins fused to the ligand binding domain (LBD) of human FXR (aa 193-473). To accomplish this, the portions of the sequences encoding the FXR LBD were amplified by polymerase chain reaction (PCR) from a full-length clone by PCR and then subcloned into the plasmid vectors. The final clone was verified by DNA sequence analysis.
The induction, expression, and subsequent purification of GST-LBD fusion protein was performed in E. coli strain BL21 (pLysS) cells by standard methods (Current Protocols in Molecular Biology, Wiley Press, ed. Ausubel et al.).
Radioligand Binding Assay
Binding of test substances to the FXR ligand binding domain was assessed in a radioligand displacement assay. The assay was performed in a buffer consisting of 50 mM Hepes, pH 7.4, 10 mM NaCl, 5 mM MgCl2, 0.01% CHAPS. For each reaction well in a 96-well plate, 40 nM of GST-FXR LBD fusion protein was bound to […] glutathione ytrium silicate SPA beads (PharmaciaAmersham) in a final volume of […] by shaking. A radioligand (e.g., 20 nM of 2,N-dicyclohexyl-2-[2-(2,4 dimethoxy-phenyl)-benzoimidazol-1-yl]-acetamide) and test compounds were added, and scintillation proximity counting was performed. All binding assays were performed in 96-well plates and the amount of bound ligand was measured on a Packard TopCount using OptiPlates (Packard). Dose response curves were performed within a range of test compound concentrations from 6×10^−9 M to 2.5×10^−5 M and IC50 values were calculated.
On the technique in general: SPA uses beads or plates that emit light when radiolabelled molecules are held near them.

As usually defined, the IC50 is the point on the concentration scale where inhibition reaches its midpoint. `Fc1cc2nc(-c3ccc(Cl)cc3OCc3cccc(-c4nnn[nH]4)c3)n(CC3CCCCC3)c2cc1F` [Example 30, 2-{4-Chloro-2-[3-(1H-tetrazol-5-yl)-benzyloxy]-phenyl}-1-cyclohexylmethyl-5,6-difluoro-1H-benzoimidazole] yielded an IC50 of 400 nM.

In turn, `Fc1cc2nc(-c3ccc(Cl)cc3OCc3ccc(-c4nnn[nH]4)cc3)n(CC3CCCCC3)c2cc1F` [Example 31, 2-{4-Chloro-2-[4-(1H-tetrazol-5-yl)-benzyloxy]-phenyl}-1-cyclohexylmethyl-5,6-difluoro-1H-benzoimidazole] registered an IC50 of 50 nM. This IC50 lies about 8-fold lower than the previous one.

The molecule `Fc1cc2nc(-c3ccc(Cl)cc3OCc3ccc(-c4nnn[nH]4)cc3F)n(CC3CCCCC3)c2cc1F` [Example 32, 2-{4-Chloro-2-[2-fluoro-4-(1H-tetrazol-5-yl)-benzyloxy]-phenyl}-1-cyclohexylmethyl-5,6-difluoro-1H-benzoimidazole] returned an IC50 of 10 nM.

Molecule `Fc1cc2nc(-c3ccc(Cl)cc3OCc3ccc(-c4nnn[nH]4)c(F)c3)n(CC3CCCCC3)c2cc1F` [Example 33, 2-{4-Chloro-2-[3-fluoro-4-(1H-tetrazol-5-yl)-benzyloxy]-phenyl}-1-cyclohexylmethyl-5,6-difluoro-1H-benzoimidazole] had a concentration for half-maximal inhibition (IC50) of 40 nM. This IC50 lies about 4-fold higher than the previous one.

Regarding `Fc1cc2nc(-c3ccccc3OCc3ccc(-c4nnn[nH]4)cc3F)n(CC3CCCCC3)c2cc1F` [Example 34, 1-Cyclohexylmethyl-5,6-difluoro-2-{2-[2-fluoro-4-(1H-tetrazol-5-yl)-benzyloxy]-phenyl}-1H-benzoimidazole], the IC50 was 30 nM.

`COc1cc(-c2nnn[nH]2)ccc1COc1cc(Cl)ccc1-c1nc2cc(F)c(F)cc2n1CC1CCCCC1` [Example 35, 2-{4-Chloro-2-[2-methoxy-4-(1H-tetrazol-5-yl)-benzyloxy]-phenyl}-1-cyclohexylmethyl-5,6-difluoro-1H-benzoimidazole] registered an IC50 of 50 nM.

The molecule `Fc1cc2nc(-c3ccc(Cl)cc3OCCc3ccc(-c4nnn[nH]4)cc3)n(CC3CCCCC3)c2cc1F` [Example 36, 2-(4-Chloro-2-{2-[4-(1H-tetrazol-5-yl)-phenyl]-ethoxy}-phenyl)-1-cyclohexylmethyl-5,6-difluoro-1H-benzoimidazole] registered an IC50 of 90 nM.

With `Fc1cc2nc(-c3ccc(Cl)cc3OCc3ccc(-c4nnn[nH]4)s3)n(CC3CCCCC3)c2cc1F` [Example 37, 2-{4-Chloro-2-[5-(1H-tetrazol-5-yl)-thiophen-2-ylmethoxy]-phenyl}-1-cyclohexylmethyl-5,6-difluoro-1H-benzoimidazole], the IC50 is 200 nM.

In the case of `Fc1cc2nc(-c3ccc(Cl)cc3OCc3ccc(-c4nnn[nH]4)cc3C(F)(F)F)n(CC3CCCCC3)c2cc1F` [Example 38, 2-{4-Chloro-2-[4-(1H-tetrazol-5-yl)-2-trifluoromethyl-benzyloxy]-phenyl}-1-cyclohexylmethyl-5,6-difluoro-1H-benzoimidazole], the IC50 amounted to 200 nM.

Molecule `Fc1cc(-c2nnn[nH]2)ccc1COc1cc(Cl)ccc1-c1nc2ccccc2n1CC1CCCCC1` [Example 39, 2-{4-Chloro-2-[2-fluoro-4-(1H-tetrazol-5-yl)-benzyloxy]-phenyl}-1-cyclohexylmethyl-1H-benzoimidazole] gave an IC50 of 30 nM.

For `Fc1cc2nc(-c3ccccc3COc3ccc(-c4nnn[nH]4)cc3F)n(CC3CCCCC3)c2cc1F` [Example 40, 1-Cyclohexylmethyl-5,6-difluoro-2-{2-[2-fluoro-4-(1H-tetrazol-5-yl)-phenoxymethyl]-phenyl}-1H-benzoimidazole], the IC50 turned out to be 4 nM. Against the preceding molecule, the IC50 is about 7.5-fold lower.

On to `Fc1cc2nc(-c3ccccc3COc3ccc(-c4nnn[nH]4)c(F)c3)n(CC3CCCCC3)c2cc1F` [Example 41, 1-Cyclohexylmethyl-5,6-difluoro-2-{2-[3-fluoro-4-(1H-tetrazol-5-yl)-phenoxymethyl]-phenyl}-1H-benzoimidazole], for which the IC50 was determined as 200 nM.

As for `Fc1cc2nc(-c3ccc(Cl)cc3OCc3ccc(-c4nnn[nH]4)cc3F)n(CC3CCCC3)c2cc1F` [Example 42, 2-{4-Chloro-2-[2-fluoro-4-(1H-tetrazol-5-yl)-benzyloxy]-phenyl}-1-cyclopentylmethyl-5,6-difluoro-1H-benzoimidazole], the IC50 was 40 nM.

For `Fc1cc2nc(-c3ccc(Cl)cc3OCc3ccc(-c4nnn[nH]4)cc3F)n(CCC3CCCCC3)c2cc1F` [Example 43, 2-{4-Chloro-2-[2-fluoro-4-(1H-tetrazol-5-yl)-benzyloxy]-phenyl}-1-(2-cyclohexyl-ethyl)-5,6-difluoro-1H-benzoimidazole], the IC50 is 90 nM. This IC50 is about 2.2-fold higher than that of the molecule before.

As for `CCCCCn1c(-c2ccc(Cl)cc2OCc2ccc(-c3nnn[nH]3)cc2F)nc2cc(F)c(F)cc21` [Example 44, 2-{4-Chloro-2-[2-fluoro-4-(1H-tetrazol-5-yl)-benzyloxy]-phenyl}-5,6-difluoro-1-pentyl-1H-benzoimidazole], the concentration for half-maximal inhibition (IC50) stood at 100 nM.

For the molecule `Fc1cc2nc(-c3ccc(Cl)cc3OCc3ccc(-c4nnn[nH]4)cc3F)n(CC3CCCCO3)c2cc1F` (centres unmarked) [Example 45, 2-{4-Chloro-2-[2-fluoro-4-(1H-tetrazol-5-yl)-benzyloxy]-phenyl}-5,6-difluoro-1-(tetrahydro-pyran-2-ylmethyl)-1H-benzoimidazole], the IC50 amounted to 100 nM.

The molecule `CC(C)(C)Cn1c(-c2ccc(Cl)cc2OCc2ccc(-c3nnn[nH]3)cc2F)nc2cc(F)c(F)cc21` [Example 46, 2-{4-Chloro-2-[2-fluoro-4-(1H-tetrazol-5-yl)-benzyloxy]-phenyl}-1-(2,2-dimethyl-propyl)-5,6-difluoro-1H-benzoimidazole] showed a half-inhibitory concentration (IC50) of 400 nM. This IC50 is about 4-fold higher than that of the molecule before.

`Fc1cc2nc(-c3ccc(Cl)cc3OCc3ccc(-c4nnn[nH]4)cc3F)n(CC3CCOCC3)c2cc1F` [Example 47, 2-{4-Chloro-2-[2-fluoro-4-(1H-tetrazol-5-yl)-benzyloxy]-phenyl}-5,6-difluoro-1-(tetrahydro-pyran-4-ylmethyl)-1H-benzoimidazole] displayed an IC50 of 900 nM.

`Fc1cc2nc(-c3ccc(Cl)cc3OCc3ccccc3Cl)n(Cc3ccccc3)c2cc1F` [Example 48, 1-Benzyl-2-[4-chloro-2-(2-chloro-benzyloxy)-phenyl]-5,6-difluoro-1H-benzoimidazole] came in with an IC50 of 400 nM.

For the molecule `Fc1cc2nc(-c3ccc(Cl)cc3OCC3CCCC3)n(Cc3ccccc3)c2cc1F` [Example 49, 1-Benzyl-2-(4-chloro-2-cyclopentylmethoxy-phenyl)-5,6-difluoro-1H-benzoimidazole], the IC50 is 1100 nM.

The molecule `Fc1cc2nc(-c3ccc(Cl)cc3OCC3CC3)n(Cc3ccccc3)c2cc1F` [Example 50, 1-Benzyl-2-(4-chloro-2-cyclopropylmethoxy-phenyl)-5,6-difluoro-1H-benzoimidazole] showed an IC50 of 1900 nM.

Molecule `O=C(O)c1ccc(COc2cc(Cl)ccc2-c2nc3cc(F)c(F)cc3n2Cc2ccccc2)cc1` [Example 51, 4-[2-(1-Benzyl-5,6-difluoro-1H-benzoimidazol-2-yl)-5-chloro-phenoxymethyl]-benzoic acid] gave a concentration for half-maximal inhibition (IC50) of 500 nM.

`O=C(O)COc1ccc(COc2cc(Cl)ccc2-c2nc3cc(F)c(F)cc3n2Cc2ccccc2)cc1` [Example 52, {4-[2-(1-Benzyl-5,6-difluoro-1H-benzoimidazol-2-yl)-5-chloro-phenoxymethyl]-phenoxy}-acetic acid] registered an IC50 of 800 nM.
